According to PMC11864945 (Frontiers in Pharmacology, 2025):
Read-outs that look alike come from different tables or passages of the source.

What was measured:
in vivo = conditions: beagle, dog, po; for AUC(0-t): AUC0–30; for AUC(0-inf): AUC0–inf; for k el: Kel (elimination rate constant); for half-life: t1/2 (elimination half–life)
[1] = beagle, dog, in vivo; for AUC0–30 / AUC0–inf / Cmax / Kel (elimination rate constant) / Tmax / t1/2 (elimination half–life): po
[2] = Stability of the analytes in beagle dog plasma (bench top, refrigerator, freeze–thaw, autosampler, short and long term storage); assay type: physicochemical; conditions: for Mean stability sample ±SD: n = 5
[3] = Bioequivalence / pharmacokinetic study of compound febantel tablets after single oral dose, plasma levels by UPLC–MS/MS; conditions: beagle, dog, 38 beagle dogs, fasting, mean ± SD; for AUC(0-inf): AUC0–inf; for k el: Kel (elimination rate constant); for half-life: t1/2 (elimination half–life)
[4] = autosampler, 6°C, 55 h, processed plasma samples, HQC
[5] = autosampler, 6°C, 55 h, processed plasma samples, LQC
[6] = bench top, room temperature, 8 h, dog plasma, HQC (added 180 ng/mL PYR/OXF, 675 PRA, 90 FBT, 450 FEN)
[7] = bench top, room temperature, 8 h, dog plasma, HQC, % of nominal concentration
[8] = bench top, room temperature, 8 h, dog plasma, LQC (added 12 ng/mL PYR/OXF, 45 PRA, 6 FBT, 30 FEN)
[9] = bench top, room temperature, 8 h, dog plasma, LQC, % of nominal concentration
[10] = freeze–thaw after 3rd cycle at −80°C, dog plasma, HQC
[11] = freeze–thaw after 3rd cycle at −80°C, dog plasma, LQC
[12] = long term, −80°C, 120 days, dog plasma, HQC
[13] = long term, −80°C, 120 days, dog plasma, LQC
[14] = refrigerator, 4°C, 30 h, dog plasma, HQC
[15] = refrigerator, 4°C, 30 h, dog plasma, LQC
[16] = short term, −20°C, 48 h, dog plasma, HQC
[17] = short term, −20°C, 48 h, dog plasma, LQC
[18] = reference product (R), single oral tablet
[19] = test product (T), single oral tablet

Row | SMILES | Mean stability sample ±SD [2, 4] [ng/mL] | Accuracy [2, 5] [%] | Mean stability sample ±SD [2, 5] [ng/mL] | Mean stability sample ±SD [2, 6] [ng/mL] | Accuracy [2, 7] [%] | Mean stability sample ±SD [2, 8] [ng/mL] | Accuracy [2, 9] [%] | Accuracy [2, 10] [%] | Mean stability sample ±SD [2, 10] [ng/mL] | Accuracy [2, 11] [%] | Mean stability sample ±SD [2, 11] [ng/mL] | Accuracy [2, 12] [%] | Mean stability sample ±SD [2, 12] [ng/mL] | Accuracy [2, 13] [%] | Mean stability sample ±SD [2, 13] [ng/mL] | Accuracy [2, 14] [%] | Mean stability sample ±SD [2, 14] [ng/mL] | Accuracy [2, 15] [%] | Mean stability sample ±SD [2, 15] [ng/mL] | Accuracy [2, 16] [%] | also measured
1 | COC(=O)Nc1nc2ccc(Sc3ccccc3)cc2[nH]1 [Fenbendazole, fenbendazole] | 457.91 ± 24.20 | 100.87 | 30.26 ± 0.97 | 412.09 ± 6.95 | 91.58 | 28.75 ± 0.77 | 95.83 | 99.49 | 447.72 ± 13.36 | 98.82 | 29.65 ± 1.05 | 101.31 | 455.87 ± 11.17 | 102.31 | 30.69 ± 0.89 | 97.40 | 438.32 ± 14.73 | 97.04 | 29.11 ± 1.92 | 104.58 | AUC(0-t) (in vivo): 1440 ng·h/mL; AUC(0-inf) (in vivo): 1680 ng·h/mL; k el (in vivo): 4.44e-05 s⁻¹; Tmax (in vivo): 5 ± 3.56 h; half-life (in vivo): 6.96 ± 8.33 h; AUC0–30 [1]: 1,689.33 ± 881.68 h. ng/mL; AUC0–inf [1]: 1,893.90 ± 934.66 h ng/mL; Cmax [1]: 212.35 ± 104.41 ng/mL; Kel (elimination rate constant) [1]: 0.15 ± 0.07 h⁻¹; Tmax [1]: 5.20 ± 3.10 h; t1/2 (elimination half–life) [1]: 5.76 ± 3.70 h; Mean stability sample ±SD [2, 16]: 470.60 ± 13.89 ng/mL; Accuracy [2, 17]: 103.13%; Mean stability sample ±SD [2, 17]: 30.94 ± 2.18 ng/mL
2 | O=C(C1CCCCC1)N1CC(=O)N2CCc3ccccc3C2C1 (stereo not drawn) [Praziquantel, praziquantel] | 729.27 ± 27.29 | 103.68 | 46.65 ± 1.23 | 645.65 ± 11.69 | 95.65 | 44.28 ± 0.95 | 98.41 | 99.19 | 669.52 ± 14.97 | 98.12 | 44.15 ± 2.42 | 91.14 | 615.17 ± 19.69 | 94.44 | 42.50 ± 4.13 | 96.95 | 654.44 ± 29.69 | 98.16 | 44.17 ± 3.20 | 108.18 | AUC(0-t) (in vivo): 3320 ng·h/mL; AUC(0-inf) (in vivo): 3370 ng·h/mL; k el (in vivo): 0.000122 s⁻¹; Tmax (in vivo): 1.45 ± 1.05 h; half-life (in vivo): 1.66 ± 0.41 h; GMR (Test/Reference) of AUC0–30 [1]: 101.83%; GMR (Test/Reference) of AUC0–inf [1]: 101.79%; GMR (Test/Reference) of Cmax [1]: 97.63%; AUC0–30 [1]: 3,267.67 ± 1827.15 h. ng/mL; AUC0–inf [1]: 3,317.89 ± 1838.60 h ng/mL; Cmax [1]: 957.04 ± 537.42 ng/mL; Kel (elimination rate constant) [1]: 0.45 ± 0.12 h⁻¹; Tmax [1]: 1.48 ± 0.67 h; t1/2 (elimination half–life) [1]: 1.65 ± 0.46 h; Accuracy [2, 4]: 108.04%; Mean stability sample ±SD [2, 16]: 730.20 ± 19.11 ng/mL; Accuracy [2, 17]: 100.34%; Mean stability sample ±SD [2, 17]: 45.15 ± 3.68 ng/mL
3 | COC(=O)Nc1nc2ccc([S+]([O-])c3ccccc3)cc2[nH]1 (stereo not drawn) [Qxfendazole, oxfendazole] | 192.72 ± 8.41 | 106.85 | 12.82 ± 0.85 | 162.16 ± 2.99 | 90.09 | 12.08 ± 1.02 | 100.65 | 97.23 | 175.01 ± 5.08 | 100.97 | 12.12 ± 0.84 | 97.64 | 175.76 ± 5.23 | 93.96 | 11.28 ± 0.62 | 96.84 | 174.31 ± 5.37 | 95.50 | 11.46 ± 0.74 | 105.41 | AUC(0-t) ([3]; AUC0–30, reference product (R), single oral tablet): 2100 ng·h/mL; AUC(0-t) ([3]; AUC0–30, test product (T), single oral tablet): 1790 ng·h/mL; AUC(0-inf) [3, 18]: 2550 ng·h/mL; AUC(0-inf) [3, 19]: 1910 ng·h/mL; Cmax ([3]; reference product (R, Drontal Plus), single oral tablet): 224 ± 112 ng/mL; Cmax ([3]; test product (T), single oral tablet (150 mg FBT, 144 mg pyrantel pamoate, 50 mg PRA)): 184 ± 95.7 ng/mL; k el [3, 18]: 6.11e-05 s⁻¹; k el [3, 19]: 6.67e-05 s⁻¹; Tmax [3, 18]: 6.97 ± 3.47 h; Tmax [3, 19]: 7.08 ± 2.65 h; half-life [3, 18]: 4.17 ± 2.45 h; half-life [3, 19]: 3.83 ± 3.03 h; Accuracy [2, 4]: 107.07%; Mean stability sample ±SD [2, 16]: 189.73 ± 8.17 ng/mL; Accuracy [2, 17]: 98.29%; Mean stability sample ±SD [2, 17]: 11.80 ± 0.79 ng/mL
